In the CheMixHub viscosity set:
“And” between values parts separate entries of the source, which are not always exact repeats. Identical values can stand only once. ± gives the uncertainty stated by the source.

OCC(F)(F)F
Settings	viscosity
293.15 K, 101 kPa	2.11 ± 0.04 mPa·s and 2.108 ± 0.21 mPa·s
298 K, 101.3 kPa	1.737 ± 0.016 mPa·s
298.15 K, 100 kPa	1.744 ± 0.037 mPa·s
298.15 K, 101 kPa	1.84 ± 0.04 mPa·s and 1.722 ± 0.045 mPa·s
298.15 K, 101.33 kPa	1.73 ± 0.02 mPa·s
303 K, 101.3 kPa	1.357 ± 0.014 mPa·s
303.15 K, 101 kPa	1.62 ± 0.03 mPa·s
303.15 K, 101.33 kPa	1.53 ± 0.02 mPa·s
308 K, 101.3 kPa	1.201 ± 0.013 mPa·s
308.15 K, 101 kPa	1.43 ± 0.03 mPa·s
308.15 K, 101.33 kPa	1.35 ± 0.01 mPa·s
313 K, 101.3 kPa	1.054 ± 0.013 mPa·s
313.15 K, 100 kPa	1.23 ± 0.6 mPa·s
313.15 K, 101 kPa	1.27 ± 0.03 mPa·s and 1.203 ± 0.12 mPa·s
318.15 K, 100 kPa	1.1 mPa·s
318.15 K, 101 kPa	1.13 ± 0.02 mPa·s
318.15 K, 101.33 kPa	1.09 ± 0.01 mPa·s
323.15 K, 100 kPa	0.99 ± 0.2 mPa·s and 0.948 ± 0.021 mPa·s
323.15 K, 101 kPa	1.02 ± 0.02 mPa·s and 0.963 ± 0.097 mPa·s

C1=C[C@H]2[C@@H](C1)[C@H]1C=C[C@@H]2C1
101.2 kPa
Settings	viscosity [mPa·s]
293.15 K	4.463 ± 0.23
298.15 K	3.918 ± 0.2
303.15 K	3.456 ± 0.18
308.15 K	3.126 ± 0.16
313.15 K	2.81 ± 0.14
318.15 K	2.539 ± 0.13

C1COCCO1
Settings	viscosity
293.15 K, 100 kPa	1.286 ± 0.13 mPa·s and 1.221 ± 0.24 mPa·s
293.15 K, 101 kPa	1.271 ± 0.012 mPa·s
293.15 K, 101.3 kPa	1.297 ± 0.017 mPa·s
295.1 K, 101.32 kPa	1.26 ± 0.0099 mPa·s
298.15 K, 100 kPa	1.122 ± 0.23 mPa·s
298.15 K, 101 kPa	1.155 ± 0.011 mPa·s
298.15 K, 101.33 kPa	1.321 ± 0.009 mPa·s and 1.149 ± 0.02 mPa·s
301.15 K, 101.32 kPa	1.116 ± 0.0088 mPa·s
302.15 K, 101 kPa	1.099 ± 0.0087 mPa·s
303.15 K, 100 kPa	1.034 ± 0.21 mPa·s
304.15 K, 101.32 kPa	1.046 ± 0.0083 mPa·s
306.15 K, 101 kPa	1.029 ± 0.0082 mPa·s
307.15 K, 101.32 kPa	0.9913 ± 0.0079 mPa·s
308.15 K, 100 kPa	0.999 ± 0.04 mPa·s
308.15 K, 101.33 kPa	1 ± 0.007 mPa·s and 0.999 ± 0.025 mPa·s and 0.969 ± 0.016 mPa·s
309.15 K, 101 kPa	0.9815 ± 0.0078 mPa·s
310.15 K, 101.32 kPa	0.9402 ± 0.0075 mPa·s
311.15 K, 101 kPa	0.9497 ± 0.022 mPa·s
313.1 K, 101 kPa	0.929 ± 0.015 mPa·s and 0.929 ± 0.016 mPa·s
313.15 K, 101.32 kPa	0.939 ± 0.024 mPa·s and 0.8914 ± 0.0072 mPa·s
313.15 K, 101.33 kPa	0.9376 ± 0.059 mPa·s
316.15 K, 101 kPa	0.8859 ± 0.021 mPa·s
318.15 K, 101.33 kPa	0.8714 ± 0.056 mPa·s and 0.901 ± 0.015 mPa·s
320.15 K, 101 kPa	0.8276 ± 0.019 mPa·s
323.1 K, 101 kPa	0.809 ± 0.013 mPa·s and 0.809 ± 0.014 mPa·s
323.15 K, 100 kPa	0.814 ± 0.082 mPa·s
323.15 K, 101 kPa	0.8147 ± 0.0082 mPa·s and 0.819 ± 0.0082 mPa·s
323.15 K, 101.33 kPa	0.8121 ± 0.053 mPa·s

FC(F)C(F)(F)OCC(F)(F)C(F)(F)C(F)(F)C(F)F
101 kPa
Settings	viscosity [mPa·s]
298.15 K	2.5 ± 0.11
308.15 K	2.12 ± 0.09
318.15 K	1.65 ± 0.07
323.15 K	1.52 ± 0.07

Ic1ccccc1
viscosity [mPa·s]
Settings	293.15 K	298.15 K	308.15 K	318.15 K	323.15 K
101 kPa	–	1.513 ± 0.041	1.318 ± 0.036	1.162 ± 0.031	1.083 ± 0.029
101.33 kPa	1.736 ± 0.041	–	–	–	–

O=C1CCCCO1
101 kPa
Settings	viscosity [mPa·s]
303.15 K	2.758 ± 0.19
308.15 K	2.496 ± 0.17
313.15 K	2.313 ± 0.16
318.15 K	2.119 ± 0.15

BrCCBr
viscosity
Settings	298.15 K	308.15 K	323.15 K
101 kPa	1.613 ± 0.021 mPa·s	–	–
101.33 kPa	1.616 ± 0.019 mPa·s and 1.564 ± 0.016 mPa·s	1.384 ± 0.016 mPa·s	1.107 ± 0.011 mPa·s

CCCC#N
Settings	viscosity [mPa·s]
298.15 K, 101 kPa	0.502 ± 0.04

CC(=O)OCC(COC(C)=O)OC(C)=O
101.33 kPa
Settings	viscosity [mPa·s]
298 K	16.31 ± 0.24
303 K	12.62 ± 0.17
308 K	10.03 ± 0.13
313 K	8.12 ± 0.11

CC(=O)[O-].CCCC[n+]1ccn(C)c1
viscosity
Settings	298.15 K	303.15 K	313.15 K	314.3 K	323.15 K
100 kPa	594.8 ± 50 mPa·s	399.6 ± 29 mPa·s	200.1 ± 11 mPa·s	–	111.7 ± 4.5 mPa·s
101 kPa	441 ± 48 mPa·s	–	154.5 ± 17 mPa·s	125.7 ± 14 mPa·s and 138.3 ± 14 mPa·s	–

C#Cc1ccccc1
Settings	viscosity [mPa·s]
298.15 K, 101 kPa	0.8829 ± 0.011

Brc1ccccc1
Settings	viscosity
293.15 K, 101 kPa	1.125 ± 0.019 mPa·s
293.15 K, 101.33 kPa	1.142 ± 0.028 mPa·s
298.15 K, 101 kPa	1.07 ± 0.0098 mPa·s and 1.068 ± 0.009 mPa·s
303.15 K, 101.33 kPa	0.985 ± 0.007 mPa·s
313.15 K, 101.33 kPa	0.895 ± 0.007 mPa·s
318 K, 101.3 kPa	0.8536 ± 0.031 mPa·s
318 K, 101.33 kPa	0.8536 ± 0.039 mPa·s
318.15 K, 101 kPa	0.7925 ± 0.021 mPa·s and 0.836 ± 0.023 mPa·s
323.15 K, 101 kPa	0.784 ± 0.021 mPa·s

COC(=O)CC(=O)OC
Settings	viscosity [mPa·s]
303.15 K, 101 kPa	1.804 ± 0.018
